# Source: patent US11673910B2, “Macrolides with modified desosamine sugars and uses thereof” (Zikani Therapeutics, Inc., priority 2017, dated 2023)
# Key:
# Type in all cases: cell-based
# [1] = test system: P. aeruginosa strain MP-3; experiment: Broth dilution MIC determination (CLSI) against P. aeruginosa strain MP-3; conditions: Pseudomonas aeruginosa, MP3
# Procedure, shortened: (§1)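 MICs of the macrolides were determined by standard CLSI broth dilution. Values are binned: +++ for ≤4 mg/L, ++ for ≥8 and <32 mg/L, + for ≥32 mg/L.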
# E. coli strain MP-4 = experiment: Broth dilution MIC determination (CLSI) against E. coli strain MP-4; conditions: Escherichia coli, MP4
# Procedure, shortened: as §1
# S. aureus strain MP-12 = experiment: Broth dilution MIC determination (CLSI) against S. aureus strain MP-12; conditions: Staphylococcus aureus, MP12, strain MP-12
# Procedure, shortened: as §1
# [2] = test system: A. baumannii strain MP-15; experiment: Broth dilution MIC determination (CLSI) against A. baumannii strain MP-15; conditions: Acinetobacter baumannii, MP15
# Procedure, shortened: as §1
# [3] = test system: K. pneumoniae strain MP-548; experiment: Broth dilution MIC determination (CLSI) against K. pneumoniae strain MP-548; conditions: Klebsiella pneumoniae, MP548
# Procedure, shortened: as §1
Compound,MIC [1],MIC (E. coli strain MP-4),MIC (S. aureus strain MP-12),MIC [2],MIC [3]
CC[C@H]1OC(=O)C(C)C(=O)[C@H](C)[C@@H](O[C@@H]2OC(CN[C@@H](C)c3ccc(F)cc3)CC(N(C)C)C2O)[C@](C)(OC)C[C@@H](C)CN[C@H](C)[C@H]2NC(=O)O[C@@]21C (some centres unmarked) [Compound 32],≥ 32 µg/mL,≤ 4 µg/mL,≥ 32 µg/mL,≥ 32 µg/mL,≥ 32 µg/mL
CC[C@H]1OC(=O)[C@]2(C)CCC(=O)CO[C@](C)(C[C@@H](C)CN[C@H](C)[C@H]3NC(=O)O[C@@]31C)[C@H](OC1OC(C)CC(N(C)C)C1O)[C@@H](C)C2=O (some centres unmarked) [Compound 226],≥ 32 µg/mL,≥ 32 µg/mL,≥ 32 µg/mL,≥ 32 µg/mL,≥ 32 µg/mL
CC[C@H]1OC(=O)C(C)C(=O)[C@H](C)[C@@H](O[C@@H]2O[C@H](CNC3CC3)CC(N(C)C)[C@H]2O)[C@](C)(OC)C[C@@H](C)CN(C)[C@H](C)[C@H]2N(C)C(=O)O[C@]12C (some centres unmarked) [Compound 191],≥ 32 µg/mL,≤ 4 µg/mL,≥ 32 µg/mL,≥ 32 µg/mL,8 to 32 µg/mL
CC[C@H]1OC(=O)[C@@]2(C)CCOC(C)(C[C@@H](C)CN(C)[C@H](C)[C@H]3NC(=O)O[C@@]31C)[C@H](O[C@@H]1OC(CN)CC(N(C)C)C1O)[C@@H](C)C2=O (some centres unmarked) [Compound 218],≥ 32 µg/mL,8 to 32 µg/mL,8 to 32 µg/mL,≥ 32 µg/mL,≥ 32 µg/mL

# Results, then the molecule that gave them:
MIC [1],MIC (E. coli strain MP-4),MIC (S. aureus strain MP-12),MIC [2],MIC [3],Compound
≥ 32 µg/mL,≤ 4 µg/mL,≥ 32 µg/mL,≥ 32 µg/mL,≤ 4 µg/mL,"CC[C@H]1OC(=O)C(C)C(=O)[C@H](C)[C@@H](OC2OC(CNC3CCC3)CC(N(C)C)C2O)[C@](C)(OC)C[C@@H](C)CN[C@H](C)[C@H]2NC(=O)O[C@@]21C (some centres unmarked) [Compound 120, 3-Descladinosyl-3-oxo-6-O-methyl-N9a-desmethyl-11,12-dideoxy-12,11-(oxycarbonylimino)-6′-cyclobutylamino Azithromycin]"
≥ 32 µg/mL,≥ 32 µg/mL,≥ 32 µg/mL,≥ 32 µg/mL,≥ 32 µg/mL,"CC[C@H]1OC(=O)C(C)C(=O)[C@H](C)[C@@H](OC2OC(CNCCO)CC(N(C)C)C2O)[C@](C)(OC)C[C@@H](C)CN[C@H](C)[C@H]2NC(=O)O[C@@]21C (some centres unmarked) [Compound 115, 3-Descladinosyl-3-oxo-6-O-methyl-N9a-desmethyl-11,12-dideoxy-12,11-(oxycarbonylimino)-6′-(2-hydroxyethylamino) Azithromycin]"
≥ 32 µg/mL,≤ 4 µg/mL,8 to 32 µg/mL,8 to 32 µg/mL,8 to 32 µg/mL,"CC[C@@H]1CC(N(C)C)[C@@H](O)[C@H](O[C@@H]2[C@@H](C)C(=O)C(C)C(=O)O[C@H](CC)[C@@]3(C)OC(=O)N[C@@H]3[C@@H](C)NC[C@H](C)C[C@@]2(C)OC)O1 (some centres unmarked) [Compound 182, 3-Descladinosyl-3-oxo-6-O-methyl-N9a-desmethyl-11,12-dideoxy-12,11-(oxycarbonylimino)-5′-desmethyl-5′-ethyl Azithromycin]"
